Measurements reported in the NIST ThermoML archive (doi:10.1021/je049875+).
± gives the expanded uncertainty stated by the source.

Test: activity coefficient (dimensionless); of the first substance listed, at infinite dilution; xn = mol fraction of the nth substance listed
Details: 101.33 kPa, Liquid, Chromatography, x1 = 0

| Compound | activity coefficient (303.25 K) | activity coefficient (313.25 K) | activity coefficient (323.25 K) | activity coefficient (333.25 K) | activity coefficient (343.25 K) | activity coefficient (308.95 K) | activity coefficient (318.25 K) | activity coefficient (323.15 K) |
| --- | --- | --- | --- | --- | --- | --- | --- | --- |
| CCC(C)(C)OC [2-methoxy-2-methylbutane] + O | 643 ± 39 | 796 ± 48 | 942 ± 57 | 1080 ± 65 | – | – | – | – |
| COC(C)(C)C [2-methoxy-2-methylpropane] + O | 153 ± 9 | 195 ± 12 | 235 ± 14 | 278 ± 17 | – | – | – | – |
| CC(C)=O [acetone] + O | 8.02 ± 0.48 | 9.2 ± 0.6 | 9.81 ± 0.58 | 10.3 ± 0.6 | – | – | – | – |
| c1ccccc1 [benzene] + O | – | 2370 ± 140 | – | – | – | 2470 ± 150 | 2250 ± 140 | 2140 ± 130 |
| CCC(C)=O [butanone] + O | 29.5 ± 1.8 | 33.8 ± 2 | 35.9 ± 2.1 | 38.9 ± 2.3 | – | – | – | – |
| CCOCC [diethyl ether] + O | 90.1 ± 5.4 | 113 ± 7 | 135 ± 8 | 158 ± 10 | – | – | – | – |
| CC(C)OC(C)C [diisopropyl ether] + O | 737 ± 44 | 965 ± 58 | 1140 ± 69 | 1310 ± 79 | – | – | – | – |
| CCCOCCC [dipropyl ether] + O | 2520 ± 150 | 2880 ± 180 | 3230 ± 200 | 3230 ± 200 | – | – | – | – |
| CCO [ethanol] + O | 5.03 ± 0.3 | 5.33 ± 0.32 | 5.54 ± 0.33 | 5.76 ± 0.34 | 5.96 ± 0.35 | – | – | – |
| CCOC(C)=O [ethyl acetate] + O | 76.5 ± 4.6 | 85 ± 5 | 90.1 ± 5.4 | 94.7 ± 5.7 | 96.2 ± 5.8 | – | – | – |
| Cc1ccccc1 [toluene] + O | – | 8090 ± 490 | – | – | – | 8570 ± 520 | 7720 ± 470 | 7110 ± 430 |

Second part, led by results:

| activity coefficient (303.25 K) | activity coefficient (313.25 K) | activity coefficient (323.25 K) | activity coefficient (333.25 K) | activity coefficient (343.25 K) | Compound | activity coefficient (308.95 K) | activity coefficient (318.25 K) | activity coefficient (323.15 K) |
| --- | --- | --- | --- | --- | --- | --- | --- | --- |
| 53.8 ± 3.2 | 55.7 ± 3.3 | 57.1 ± 3.4 | 57.7 ± 3.5 | – | CCOC=O [ethyl methanoate] + O | – | – | – |
| 26.2 ± 1.6 | 28.4 ± 1.7 | 29.8 ± 1.8 | 31.2 ± 1.9 | 31.6 ± 1.9 | COC(C)=O [methyl ethanoate] + O | – | – | – |
| 18.7 ± 1.1 | 19.1 ± 1.1 | 19.5 ± 1.2 | 19.8 ± 1.2 | – | COC=O [methyl methanoate] + O | – | – | – |
| 105 ± 6 | 120 ± 7 | 128 ± 8 | 135 ± 8 | – | CCCC(C)=O [pentan-2-one] + O | – | – | – |
| 297 ± 18 | 325 ± 20 | 341 ± 21 | 351 ± 21 | 348 ± 21 | CCCOC(C)=O [propyl ethanoate] + O | – | – | – |
